For one compound, MIC results are on record in patent US4560509A, “Antibiotic A39079 factor S-1” (Eli Lilly and Company, priority 1983, dated 1985).

In brackets after ≈: the same amount, converted by molar mass.

Common to all, as to assay: standard agar-dilution MIC assay
What all share (assay type): cell-based

Experiment [1] has as its system Streptococcus pneumoniae Park 1. As to conditions: PARK1; agar dilution; Streptococcus pneumoniae Park 1; read-out: MIC. From the text: (§1) Table V summarizes the minimal inhibitory concentrations (MIC) at which factor S-1 inhibits certain organisms as determined by standard agar-dilution assays. In Table V, the activity of factor S-1 is compared with that of rifampin.
A general note: In agar dilution the substance is mixed into plates at graded concentrations.

The subject of experiment [2] is Staphylococcus aureus NRRL B313. As to conditions: NRRLB313; agar dilution; Staphylococcus aureus NRRL B313; read-out: MIC.
Description: as §1

Experiment [3] concerns Serratia marcescens SE3. As to conditions: agar dilution; Serratia marcescens SE3; read-out: MIC.
Description: as §1

Experiment [4] concerns Proteus morganii PR15. As to conditions: Morganella morganii; agar dilution; Proteus morganii PR15; read-out: MIC.
Description: as §1

Experiment [5] concerns Haemophilus influenzae C.L.
Description: as §1

The test system of experiment [6] is Klebsiella pneumoniae KAE. As to conditions: agar dilution; Klebsiella pneumoniae KAE; read-out: MIC.
Description: as §1

The subject of experiment [7] is Haemophilus influenzae 76.
Description: as §1

The test system of experiment [8] is Escherichia coli TEM.
Description: as §1

In experiment [9] the test system is Pseudomonas aeruginosa X528. As to conditions: agar dilution; Pseudomonas aeruginosa X528; read-out: MIC.
Description: as §1

The subject of experiment [10] is Streptococcus faecium ATCC 9790. As to conditions: Enterococcus faecium, ATCC9790; agar dilution; Streptococcus faecium ATCC 9790; read-out: MIC.
Description: as §1

For experiment [11], the system named is Pseudomonas aeruginosa X239. As to conditions: agar dilution; Pseudomonas aeruginosa X239; read-out: MIC.
Description: as §1

The test system of experiment [12] is Pseudomonas aeruginosa Ps18.
Description: as §1

For experiment [13], the system named is Streptococcus sp. group D 9960. As to conditions: agar dilution; Streptococcus sp. group D 9960; read-out: MIC.
Description: as §1

Experiment [14] concerns Enterobacter cloacae EB5. As to conditions: agar dilution; Enterobacter cloacae EB5; read-out: MIC.
Description: as §1

In experiment [15] the test system is Citrobacter freundii CF17. As to conditions: agar dilution; Citrobacter freundii CF17; read-out: MIC.
Description: as §1

The subject of experiment [16] is Salmonella typhi X514. As to conditions: Salmonella enterica.
Description: as §1

Experiment [17] concerns Salmonella typhi 1335. As to conditions: Salmonella enterica.
Description: as §1

Experiment [18] relates to Staphylococcus epidermidis 222. As to conditions: agar dilution; Staphylococcus epidermidis 222; read-out: MIC.
Description: as §1

For experiment [19], the system named is Enterobacter cloacae 265A. As to conditions: agar dilution; Enterobacter cloacae 265A; read-out: MIC.
Description: as §1

For experiment [20], the system named is Staphylococcus aureus S13E.
Description: as §1

Experiment [21] has as its system Staphylococcus epidermidis EPI1.
Description: as §1

Experiment [22] relates to Klebsiella pneumoniae X68. As to conditions: agar dilution; Klebsiella pneumoniae X68; read-out: MIC.
Description: as §1

`CC(=O)OC1C(C)C(O)C=COC2(C)Oc3c(C)c(O)c4c(c3C2=O)C(=O)C(C)=C(NC(=O)C=CC=CC(C)C(O)C(C)C(O)C1C)C4=O` (stereo not shown) [Factor S-1]: the MIC in experiment [1] is under 0.008 µg/mL; in experiment [2], 0.015 µg/mL (≈ 0.022 µM); in [3] it was 16 µg/mL (≈ 23.5 µM); in [4] it was 8 µg/mL (≈ 11.7 µM); in experiment [5], 0.25 µg/mL (≈ 0.367 µM); in experiment [6], 16 µg/mL (≈ 23.5 µM). For the same compound, the MIC was 0.125 µg/mL (≈ 0.183 µM) in experiment [7]; over 128 µg/mL in [8]; 16 µg/mL (≈ 23.5 µM) in [9]; 1 µg/mL (≈ 1.47 µM) in [10]; 16 µg/mL (≈ 23.5 µM) in [11]; over 128 µg/mL in experiment [12]. Moreover, the MIC was 1 µg/mL (≈ 1.47 µM) in experiment [13]; 32 µg/mL (≈ 46.9 µM) in experiment [14]; 16 µg/mL (≈ 23.5 µM) in experiment [15]; 32 µg/mL (≈ 46.9 µM) in experiment [16]; 32 µg/mL (≈ 46.9 µM) in [17]; under 0.008 µg/mL in experiment [18]. The MIC in experiment [19] is 32 µg/mL (≈ 46.9 µM); in experiment [20] it was 0.015 µg/mL (≈ 0.022 µM); in experiment [21], under 0.008 µg/mL; in experiment [22], 16 µg/mL (≈ 23.5 µM).
